Starred links: 1 amine or outer side, 2 acyl side, 3 side chain; linkers in the order of their positions; H or OH if unused. Non-standard residues stand in square brackets, D forms with d. No end group written: not given here. (CH2)6 = -(CH2)6- hydrocarbon linking residues, C(CCC[*:2])CC[*:1]; pS = N[C@@H](COP(=O)(O)O)C(=O)O
Legend:
[1] = system: Human umbilical vein endothelial cells (HUVECs); experiment: Tube formation assay, VEGF-induced angiogenesis; type: cell-based; conditions: VEGF 10 ng/mL, peptide 50 μM
Description: Tube formation assays were used to assess the anti-angiogenic property of synthetic histatin compared to native HTN1 and HTN2. Human umbilical vein endothelial cells (HUVECs) were suspended in diluted MATRIGEL for an overnight incubation and then subjected to a media change containing VEGF (10 ng/mL) (Goodwin (2007) Microvasc. Res. 74:172-83) alone or VEGF (10 ng/mL) in combination with HTN1, HTN2 or synthetic histatin (50 μM).

[2] = Oudhoff, et al. (2008); cited from earlier work
[3] = system: human corneal epithelial cells; experiment: Benzalkonium chloride (BAK) injury model, LDH release; type: cell-based; conditions: 0.002% BAK
Description: Columns represent the mortality (mean±SD) of cells, total cellular death being 100% (Control).
One particularly useful model of dry eye disease and inflammatory ocular disease is the use of benzalkonium chloride (BAK) to induce cell death, inflammation and injury to ocular surfaces and corneal cells (Tressler, et al. (2011) Ocul. Surf. 9:140-58; Paimela, et al. (2012) Mol. Vis. 18:1189-1196). Briefly, human corneal epithelial cells were cultured under standard conditions. Cells were treated with native HTN5 (50 μM) or synthetic histatin (10 μM) in the presence or absence of 0.002% BAK. The permeability of cellular membranes following the exposures was determined by measuring the amount of released lactate dehydrogenase (LDH) enzyme from the cells. Maximum LDH release of cells was determined by lysing cells, and subsequently measuring the LDH from the culture medium. […] Accordingly, endogenous and synthetic histatins could be used to protect cells from injury, inflammation and cell death and are therefore of use in the treatment of dry eye disease.

[4] = system: Candida albicans; conditions: Jang, et al. (2008); cited from earlier work
[5] = Oppenheim, et al. (2012); cited from earlier work
[6] = target: T1, MMP2 (Homo sapiens, UniProt P08253); experiment: Zymography analysis of MMP2 inhibition; type: biochemical; conditions: pro-MMP2 activated with APMA, varying amounts of peptide
T1 sequence (P08253 110-660): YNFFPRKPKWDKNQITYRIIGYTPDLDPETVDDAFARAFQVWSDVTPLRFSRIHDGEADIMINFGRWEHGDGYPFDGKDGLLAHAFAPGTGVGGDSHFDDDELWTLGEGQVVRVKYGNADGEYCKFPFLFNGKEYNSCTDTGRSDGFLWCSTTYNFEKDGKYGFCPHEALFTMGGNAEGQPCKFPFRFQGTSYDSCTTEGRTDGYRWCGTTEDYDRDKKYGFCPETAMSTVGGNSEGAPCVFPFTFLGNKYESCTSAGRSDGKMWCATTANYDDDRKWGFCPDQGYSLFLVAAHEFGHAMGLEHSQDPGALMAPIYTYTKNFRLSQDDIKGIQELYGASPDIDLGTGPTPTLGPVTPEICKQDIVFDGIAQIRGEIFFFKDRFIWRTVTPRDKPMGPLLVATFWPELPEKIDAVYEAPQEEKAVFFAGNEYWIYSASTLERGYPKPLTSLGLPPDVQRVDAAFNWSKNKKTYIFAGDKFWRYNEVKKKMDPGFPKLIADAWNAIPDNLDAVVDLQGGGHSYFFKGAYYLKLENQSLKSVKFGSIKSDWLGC
Description: FIG. 1 show zymographic analysis of synthetic histatin inhibitory activity. Experiments included pro-MMP2 (100 ng; “−Ve”); activation of Pro-MMP2 with APMA (1 mM; “+Ve”); inclusion of a classic matrix metalloproteinase inhibitor, GM6001 (200 nM; “Inh”); and varying amounts of a synthetic histatin containing three metal binding domains from endogenous HTN5 and a wound healing domain from endogenous HTN1 (“H-1”). The protein ladder is shown on the right.
Zymography analysis of a synthetic histatin containing three metal binding domains from HTN5 and one wound healing domain (i.e., SEQ ID NO:29) was carried out using conventional methods. See, e.g., Thomadaki, et al. (2013) Oral Dis. 19(8):781-8.

[7] = system: human corneal epithelium cells; experiment: In vitro scratch assay (cell migration, wound closure); type: cell-based; conditions: for Time to Closure: control no closure in 48 hours
Excerpt: A conventional in vitro scratch assay was used to measure cell migration in the presence of a synthetic histatin containing three metal binding domains from HTN5 and one wound healing domain (i.e., SEQ ID NO:29). A “scratch” was made in a monolayer of human corneal epithelium cells and time lapsed microscopy was used to capture images at the beginning and at regular intervals during cell migration to close the scratch.

[8] = system: human corneal epithelium; experiment: Gene expression changes after synthetic histatin application; type: cell-based; conditions: synthetic histatin treatment
Excerpt: Pathophysiological analyses of dry eye disease indicate that the critical factors involved in the development of dry eye disease involve inflammatory pathways including Th17/IL-17, I-CAM, IL-8, TNFα/IL-1/IL-6/NFκB, IL-10, MMP9 (and other matrix metalloproteinases) and TLR4/HSP (Stevenson, et al. (2012) Arch. Ophthalmol. 130(1):90-100). In addition, it has been reported that Ephrin A is involved in the development of epitheliopathy, poor wound healing and corneal disease related to elevated sugar levels/diabetic and neuropathic ulcers of the ocular surface. Accordingly, it was determined what effect synthetic histatin application would have on the gene expression in human corneal epithelium. […] Th17/IL-17 pathway is a central and important pathway in dry eye disease (Stevenson, et al. (2012) Arch Ophthalmol. 130(1):90-100).

Substance: DSpHEKRHHGYRRKFHEKHHSHREFPFYGDYGSNYLYDN (D[pS]HEKRHHGYRRKFHEKHHSHREFPFYGDYGSNYLYDN) [HTN1, endogenous (native) histatin 1]
- formation of capillary-like structures / inhibition of angiogenesis [1]: inhibition of angiogenesis
- wound closure activity in vitro [2]: exhibit wound closure activities in vitro

Substance: DSHAKRHHGYKRKFHEKHHSHRGY [HTN5, endogenous (native) histatin 5, reference compound]
- cell death (released LDH) ([3]; 50 μM peptide): statistically significant reduction in cell death
- wound closure activity in vitro [2]: inactivity

Substance: DSHAKRHHGYKRKFHEKHHSHRGYRSNYLYDN [HTN3, endogenous (native) histatin 3]
- wound closure activity in vitro [2]: exhibit wound closure activities in vitro

Substance: RKFHEKHHSHREFPFYGDYGSNYLYDN [HTN2, endogenous (native) histatin 2]
- formation of capillary-like structures / inhibition of angiogenesis [1]: inhibition of angiogenesis

Substance: AKRHHGYKRKFH [P-113]
- fungicidal activity [4]: exhibits fungicidal activity

Substance: RKFHEKHHSHRGYR [SEQ ID NO:53]
- fungicidal activity [5]: exhibit fungicidal activity

Substance: HEKHH-(CH2)6-HEKHH-(CH2)6-HEKHH-(CH2)6-YGDYGSNYLYDN (HEKHH[(CH2)6]HEKHH[(CH2)6]HEKHH[(CH2)6]YGDYGSNYLYDN) [synthetic histatin]
- inhibition of MMP2 activity [6]: inhibited MMP2 activity in a dose-dependent manner
- Time to Closure ([7]; 1 μM synthetic histatin): 48 h
- Time to Closure ([7]; 10 μM synthetic histatin): 22 h
- wound healing (reduction in time to wound closure) ([7]; scratch in monolayer, time lapsed microscopy): notable enhancement of wound healing
- formation of capillary-like structures / inhibition of angiogenesis [1]: did not form such structures
- expression of genes related to MMP activity [8]: reduced
- expression of several members of the TNFα/IL-1/IL-6/NFKB pathway [8]: significant reduced
- genes of the IL-10 pathway (62 genes) affected [8]: 6
- genes of the TLR4/HSP pathway (54 genes) significantly affected [8]: 5
- genes of the Th17/IL-17 pathway (44 genes) with significant changes in gene expression [8]: 7
- cell death (released LDH) ([3]; 10 μM peptide): statistically significant reduction in cell death
